From US7632830B2, “Lactam compounds and pharmaceutical use thereof” (Ajinomoto Co., Inc., priority 2000, dated 2009)

Each compound was assayed on adipose cells of rats (assay: Evaluation of the sugar-transporting activity (2-[14C(U)]-deoxy-D-glucose incorporation)). Details: 100 μg/ml of each compound; evaluated on the basis of the reinforcing effect of insulin (100 nM); rat adipose cells.
Type: cell-based
Description: After the decapitation and venesection of 6 male Wistar rats (body weight: 150 to 200 g), an incision was made in the abdomen of each rat to extract 6 g in total of epididymal adipose tissues. The tissues were finely cut into 2 mm×2 mm pieces in 6 ml of KRH (Krebs-Ringer Hepes, composition: 130 mM of sodium chloride, 4.7 mM of potassium chloride, 1.2 mM of potassium dihydrogenphosphate, 1.2 mM of magnesium sulfate, 1 mM of calcium chloride and 25 mM of Hepes, pH=7.6) containing 5% of BSA (bovine serum albumin). 24 mg of collagenase (type I) was added thereto and the digestion treatment was conducted for about 40 minutes to obtain about 6 ml of isolated adipose cells. The collagenase was removed by the buffer exchange. 2% BSA/KRH solution was added to the residue for the re-suspension to obtain 45 ml of an adipose cell suspension.
The sugar-transporting activity of the compounds of the present invention was evaluated with reference to a method described in a literature [Annual Review of Biochemistry, Vol. 55, p. 1059 (1986)]. In the test, 200 μl of the adipose cell suspension was poured in each polystyrene test tube, 100 μl of the solution of the test substance (by dilution of 10 mg/ml substance dimethyl sulfoxide solution with KRH) was added thereto, and the obtained mixture was shaken and then cultured at 37° C. for 30 minutes.
The sugar-transporting activity was evaluated by measuring the quantity of 2-[^14C(U)]-deoxy-D-glucose incorporated per a unit time. Namely, 2-[^14C(U)]-deoxy-D-glucose was added to the adipose cell suspension after the pre-culture (the final concentration: 0.5 μCi/sample). 5 minutes after, cytochalasin B (final concentration: 10 μM) was added to the mixture to terminate the sugar transportation. After forming a dinonyl phthalate layer, the obtained mixture was centrifuged to separate the adipose cells from the buffer. The quantity of 2-[^14C(U)]-deoxy-D-glucose contained in the adipose cell layer was determined with a liquid scintillation counter to determine the quantity of the incorporated sugar. In this evaluation system, when insulin (100 nM) having the effect of increasing the sugar transportation was used, the effect was about 7 times as high as that obtained in the insulin-free control group.
The results of the evaluation of the sugar-transporting activity obtained by using 100 μg/ml of each compound of the present invention are shown in Table 6. The sugar transporting activity in Table 6 was evaluated on the basis of the reinforcing effect of insulin (100 nM). […] The symbols in Table 6 are as follows: • No: Example No., and • A: sugar transporting activity.
The results of the evaluation of the sugar-transporting activity obtained by using each compound of the present invention are shown in Table 7. The sugar transporting activity in Table 7 was determined in terms of the concentration (EC50: μg/ml) of a test compound, having a reinforcing effect corresponding to 50% on the basis of the reinforcing effect of insulin having a reinforcing effect of 100%.

Compound | activation at 100 µg/mL [%]
O=C1NCC2=C1C(c1ccc(Cl)cc1Cl)Nc1ccccc1N2 (stereo not shown) [Example 20] | 20 to 40
O=C1NCC2=C1C(c1ccc(-n3cccn3)cc1)Nc1ccccc1N2 (stereo not shown) [Example 17] | 20 to 40
COc1ccccc1[C@H]1N[C@@H]2CCCC[C@H]2NC2=C1C(=O)NC2 [Example 39] | ≥ 70
O=C1NCC2=C1C(c1cnc(-c3ccccc3)nc1)Nc1ccccc1N2 (stereo not shown) [Example 34] | 20 to 40
O=C1NCC2=C1C(c1ccc3c(c1)Cc1ccccc1-3)Nc1ccccc1N2 (stereo not shown) [Example 9] | 40 to 70
COc1cc(OCc2ccccc2)ccc1C1Nc2ccccc2NC2=C1C(=O)NC2 (stereo not shown) [Example 28] | 40 to 70
O=C1NCC2=C1[C@@H](c1ccc(Br)cc1)N[C@@H]1CCCC[C@H]1N2 [Example 37] | 40 to 70
CCCOc1cc(OCC)ccc1C1Nc2ccccc2NC2=C1C(=O)NC2 (stereo not shown) [Example 25] | 40 to 70
O=C1NCC2=C1[C@@H](c1ccc(Cl)cc1)N[C@@H]1CCCC[C@H]1N2 [Example 41] | ≥ 70
O=C1NCC2=C1C(c1ccc(OCC34CC5CC(CC(C5)C3)C4)cc1)Nc1ccccc1N2 (stereo not shown) [Example 14] | ≥ 70
CCCCOc1ccc(C2Nc3ccccc3NC3=C2C(=O)NC3)cc1 (stereo not shown) [Example 10] | 20 to 40
CCCCOc1ccc([C@H]2N[C@@H]3CCCC[C@H]3NC3=C2C(=O)NC3)c(OCCCC)c1 [Example 40] | ≥ 70
CC(=O)N1c2ccccc2NC2=C(C(=O)NC2)C1c1ccc(Br)cc1 (stereo not shown) [Example 43] | 40 to 70
O=C1NCC2=C1C(c1ccc(OCCC34CC5CC(CC(C5)C3)C4)cc1)Nc1ccccc1N2 (stereo not shown) [Example 15] | 40 to 70
O=C1NCC2=C1C(c1ccc(OCc3ccccc3)cc1)Nc1ccccc1N2 (stereo not shown) [Example 1] | 40 to 70
CCCCCCOc1ccc(C2Nc3ccccc3NC3=C2C(=O)NC3)c(O)c1 (stereo not shown) [Example 29] | 20 to 40
CCCCCCOc1ccc(C2Nc3ccccc3NC3=C2C(=O)NC3)c(OC)c1 (stereo not shown) [Example 27] | 40 to 70
O=C1NCC2=C1C(c1ccc(OC3C4CC5CC(C4)CC3C5)cc1)Nc1ccccc1N2 (stereo not shown) [Example 13] | 40 to 70

Same assay, conditions: concentration having a reinforcing effect corresponding to 50% of the reinforcing effect of insulin (100%); rat adipose cells

A: sugar transporting activity (EC50) [µg/mL] | Compound
4.4 | COc1ccc([C@@H]2C3=C(CNC3=O)N[C@@H]3CCCC[C@H]3N2C(C)=O)cc1 [Example 160]
3.8 | CCOc1ccccc1[C@@H]1C2=C(CNC2=O)N[C@@H]2CCCC[C@H]2N1C(=O)CO [Example 92]
6 | Cc1ccccc1[C@@H]1C2=C(CNC2=O)N[C@@H]2CCCC[C@H]2N1C(=O)C(F)(F)F [Example 117]
4 | CCc1ccccc1[C@@H]1C2=C(CNC2=O)N[C@@H]2CCCC[C@H]2N1C(C)=O [Example 131]
2 | CSc1ccccc1[C@@H]1C2=C(CNC2=O)N[C@@H]2CCCC[C@H]2N1C(=O)CO [Example 164]
15 | CCOc1ccccc1[C@@H]1C2=C(CNC2=O)N[C@@H]2CCCC[C@H]2N1C(C)=O [Example 87]
10 | COc1ccccc1[C@@H]1C2=C(CNC2=O)N[C@@H]2CCCC[C@H]2N1C(=O)c1ccccn1 [Example 76]
0.10 | COc1ccccc1[C@@H]1C2=C(CNC2=O)N[C@@H]2CCCC[C@H]2N1C(=O)CCc1ncccn1 [Example 177]
4.8 | COc1ccccc1[C@@H]1C2=C(CNC2=O)N[C@@H]2CCCC[C@H]2N1C(=O)CCCO [Example 62]
10 | COc1ccc([C@@H]2C3=C(CNC3=O)N[C@@H]3CCCC[C@H]3N2C(C)=O)c(OC)c1 [Example 115]
6 | COCC(=O)N1[C@@H]2CCCC[C@H]2NC2=C(C(=O)NC2)[C@H]1c1ccccc1Br [Example 138]
12 | CCNC(=O)N1[C@@H]2CCCC[C@H]2NC2=C(C(=O)NC2)[C@H]1c1ccccc1OCC [Example 97]
0.82 | CCC(=O)N1[C@@H]2CCCC[C@H]2NC2=C(C(=O)NC2)[C@H]1c1ccc(F)cc1OC [Example 107]
7 | CCCNC(=O)N1[C@@H]2CCCC[C@H]2NC2=C(C(=O)NC2)[C@H]1c1ccccc1OC [Example 85]
5 | CCCC(=O)N1[C@@H]2CCCC[C@H]2NC2=C(C(=O)NC2)[C@H]1c1ccccc1CC [Example 126]
5 | CC(=O)N1[C@@H]2CCCC[C@H]2NC2=C(C(=O)NC2)[C@H]1c1ccccc1C [Example 123]
2.2 | CCOCC(=O)N1[C@@H]2CCCC[C@H]2NC2=C(C(=O)NC2)[C@H]1c1ccccc1OC [Example 54]
3.6 | CCOc1ccccc1[C@@H]1C2=C(CNC2=O)N[C@@H]2CCCC[C@H]2N1C(=O)COC [Example 93]

A: sugar transporting activity (EC50) [µg/mL] | Compound
4 | CCc1ccccc1[C@@H]1C2=C(CNC2=O)N[C@@H]2CCCC[C@H]2N1C(=O)OC [Example 132]
8 | COc1cc(F)ccc1[C@@H]1C2=C(CNC2=O)N[C@@H]2CCCC[C@H]2N1C(C)=O [Example 109]
3 | CCC(=O)N1[C@@H]2CCCC[C@H]2NC2=C(C(=O)NC2)[C@H]1c1ccccc1Cl [Example 141]
2 | CCOCC(=O)N1[C@@H]2CCCC[C@H]2NC2=C(C(=O)NC2)[C@H]1c1ccccc1OC(C)C [Example 100]
3.6 | CC(=O)N1[C@@H]2CCCC[C@H]2NC2=C(C(=O)NC2)[C@H]1c1ccccc1OCc1ccccc1 [Example 103]
3.6 | CCNC(=O)N1[C@@H]2CCCC[C@H]2NC2=C(C(=O)NC2)[C@H]1c1ccccc1OC [Example 84]
8 | COc1ccccc1[C@@H]1C2=C(CNC2=O)N[C@@H]2CCCC[C@H]2N1C(=O)CCNC(=O)OCc1ccccc1 [Example 65]
1.5 | CCC(=O)N1[C@@H]2CCCC[C@H]2NC2=C(C(=O)NC2)[C@H]1c1ccccc1 [Example 154]
4.2 | COc1ccccc1[C@@H]1C2=C(CNC2=O)N[C@@H]2CCCC[C@H]2N1C(=O)CCc1ccc(F)c(F)c1 [Example 70]
1.5 | CCC(=O)N1[C@@H]2CCCC[C@H]2NC2=C(C(=O)NC2)[C@H]1c1ccccc1Br [Example 135]
4.2 | CCOC(=O)N1[C@@H]2CCCC[C@H]2NC2=C(C(=O)NC2)[C@H]1c1ccccc1OC [Example 81]
0.060 | CSc1ccccc1[C@@H]1C2=C(CNC2=O)N[C@@H]2CCCC[C@H]2N1C(=O)CCc1nccs1 [Example 173]
4 | CCCC(=O)N1[C@@H]2CCCC[C@H]2NC2=C(C(=O)NC2)[C@H]1c1ccccc1Cl [Example 142]
6 | COc1cc(Cl)ccc1[C@@H]1C2=C(CNC2=O)N[C@@H]2CCCC[C@H]2N1C(C)=O [Example 110]
4 | CCOCC(=O)N1[C@@H]2CCCC[C@H]2NC2=C(C(=O)NC2)[C@H]1c1ccccc1C [Example 119]
2.5 | Cc1ccccc1[C@@H]1C2=C(CNC2=O)N[C@@H]2CCCC[C@H]2N1C(=O)CO [Example 121]
0.5 | O=C1NCC2=C1[C@@H](c1ccccc1Cl)N(C(=O)CC(F)(F)F)[C@@H]1CCCC[C@H]1N2 [Example 143]
0.070 | CSc1ccccc1[C@@H]1C2=C(CNC2=O)N[C@@H]2CCCC[C@H]2N1C(=O)CCc1ncco1 [Example 168]

Same assay, conditions: insulin 100 nM; rat adipose cells

Compound | effect of increasing the sugar transportation relative to insulin-free control group
insulin: insulin (100 nM) having the effect of increasing the sugar transportation; reference for the reinforcing effect [reference compound] | about 7 times
